Measurements: patent US20030199694A1, “Thermally stable trimetrexates and processes for producing the same” (MedImmune Oncology, Inc., priority 1998, published 2003)

Columns and labels:
[1] = at 37° C.; cited from earlier work
[2] = cited from earlier work
[3] = Thermal stability of TMH relative to anhydrous trimetrexate: storage at 25° C. or 50° C., HPLC assay, impurities and moisture; format: physicochemical
Experimental: Samples of trimetrexate monohydrate and anhydrous trimetrexate were analyzed to compare the thermal stability of anhydrous trimetrexate with the trimetrexate monohydrate of the present invention. Anhydrous trimetrexate was prepared by dehydrating trimetrexate monohydrate. A sample of trimetrexate monohydrate (about 30 g) was placed in a Petri dish and dried in a vacuum dessicator over phosphorus pentoxide. The sample was dried at a pressure of about 100 microns for 6 days. The following procedure was used to assay the purity of trimetrexate monohydrate and anhydrous trimetrexate samples. Samples of the compounds were analyzed by HPLC. The mobile phase is prepared by first dissolving 5 g of sodium dodecyl sulfate (Aldrich 86,201-0 or equivalent) in 1100 mL water and adjusting the pH to 3.0 with glacial acetic acid (about 5 mL). 825 mL of HPLC grade acetonitrile is then added, and the solution mixed thoroughly, while avoiding excessive foaming. The unfiltered solution is then degassed by sonicating for 5 minutes. The solution is degassed immediately before use, and at the beginning of each day. Duplicate standard solutions are prepared with a trimetrexate reference compound at a concentration of 0.2 mg/mL in the mobile phase solution (“STD-1” and “STD-2”). The standard solutions are stored under refrigeration when not in use, and fresh solutions are prepared daily. Sample solutions of anhydrous trimetrexate and trimetrexate monohydrate are also prepared at 0.2 mg/mL in the mobile phase solution. The system is checked before testing the sample solutions by analyzing the reproducibility of trimetrexate peak area measurements for six injections of the standard trimetrexate solution (STD-1), trimetrexate peak symmetry, and agreement between the duplicate standard preparations. The acceptance criteria are as follows: For assay data, the HPLC operating parameters are as follows: [table] For the determination of impurities, the operating parameters are as before, except that the run time is extended to 30 minutes to detect all possible impurities and/or degradation products, and an attenuation of 32 is used. A mobile phase blank is first run, followed by a sample solution. Purity (%w/w)=[(mg found×100%)+mg sample weighed)]×[…] Peak Area (%)=[peak area (imp)÷(Σpeak area (all impurities+TMTX))]×100. Samples of the anhydrous and monohydrate compounds were initially assayed for purity and moisture content. The samples were stored for 4 weeks at either 25° C. or 50° C. HPLC chromatograms were recorded for the samples stored at each temperature after 3 days, 1 week, 2 weeks and 4 weeks of storage, and the samples assayed at each time interval for purity, impurities and water content. […] The peak at about 13 minutes corresponds to the non-degraded compound; this peak is truncated in the Figure in order to expand the y-axis to view the impurities. […] The “amine” entry in Table 9 corresponds to the amine degradation product which is prominent in FIG. 7 as the large peak at about 20 minutes in the anhydrous sample. This degradation product was isolated and identified as 6-aminomethyl-5-methyl-2,4-quinazolinediamine. It is a pale yellow powder, with a molecular formula of C10H13N5 and a formula weight of 203.25 g/mol. The structure of the compound is shown below [drawing 11]

[4] = system: murine tumors such as B16 melanoma, colon 26 and 38, L1210 and p388 leukemia and CD8F mammary tumors; conditions: cited from earlier work
[5] = system: murine cell lines such as L1210, L5178Y, S-180, W-256; conditions: cited from earlier work
[6] = system: human tumor cells lines derived from breast, colon, lung, ovary, renal and melanoma cells; conditions: human tumor cell lines from breast; cited from earlier work
[7] = Hygroscopicity; format: physicochemical
[8] = stored at 25° C., 1 week, monohydrate
[9] = stored at 25° C., 2 weeks, monohydrate
[10] = stored at 25° C., 4 weeks, monohydrate
[11] = stored at 25° C., 3 days, monohydrate
[12] = stored at 50° C., 1 week, monohydrate
[13] = stored at 50° C., 2 weeks, monohydrate
[14] = stored at 50° C., 4 weeks, monohydrate
[15] = stored at 50° C., 3 days, monohydrate

For `COc1cc(NCc2ccc3nc(N)nc(N)c3c2C)cc(OC)c1OC.O=C(O)[C@H]1O[C@H](O)[C@H](O)[C@@H](O)[C@@H]1O` [trimetrexate glucuronate], which half-life in solution [1] is on record?
Its half-life in solution is 51.6 ± 0.8 days.

What about the water solubility [2] of the same compound?
Its water solubility is greater than 50 mg/mL.

Which results are given for `COc1cc(NCc2ccc3nc(N)nc(N)c3c2C)cc(OC)c1OC` [Anhydrous, 2,4-diamino-5-methyl-6-[(3,4,5-trimethoxyanilino)methyl] quinazoline]?
% Moisture ([3]; Initial): 0.1%; Assay ([3]; Initial, before storage, HPLC purity): 98.5 w/w; Total Impurities ([3]; Initial, HPLC): 0.3 % area; Amine ([3]; Initial, degradation product 6-aminomethyl-5-methyl-2,4-quinazolinediamine, HPLC): 0.2 % area; % Moisture ([3]; stored at 25° C., 1 week): 0.4%; Amine ([3]; stored at 25° C., 1 week): 0.3 % area; Assay ([3]; stored at 25° C., 1 week): 96.6 w/w; Total Impurities ([3]; stored at 25° C., 1 week): 0.4 % area; % Moisture ([3]; stored at 25° C., 2 weeks): 0.2%; Amine ([3]; stored at 25° C., 2 weeks): 0.4 % area; Assay ([3]; stored at 25° C., 2 weeks): 98.4 w/w; Total Impurities ([3]; stored at 25° C., 2 weeks): 0.5 % area; % Moisture ([3]; stored at 25° C., 4 weeks): <0.1%; Amine ([3]; stored at 25° C., 4 weeks): 0.8 % area; Assay ([3]; stored at 25° C., 4 weeks): 97.6 w/w; Total Impurities ([3]; stored at 25° C., 4 weeks): 1.0 % area; % Moisture ([3]; stored at 25° C., 3 days): 0.3%; Amine ([3]; stored at 25° C., 3 days): 0.2 % area; Assay ([3]; stored at 25° C., 3 days): 100.4 w/w; Total Impurities ([3]; stored at 25° C., 3 days): 0.4 % area; % Moisture ([3]; stored at 50° C., 1 week): 0.7%; Amine ([3]; stored at 50° C., 1 week): 0.7 % area; Assay ([3]; stored at 50° C., 1 week): 95.0 w/w; Total Impurities ([3]; stored at 50° C., 1 week): 1.2 % area; % Moisture ([3]; stored at 50° C., 2 weeks): 0.3%; Amine ([3]; stored at 50° C., 2 weeks): 1.4 % area; Assay ([3]; stored at 50° C., 2 weeks): 95.8 w/w; Total Impurities ([3]; stored at 50° C., 2 weeks): 2.1 % area; % Moisture ([3]; stored at 50° C., 4 weeks): <0.1%; Amine ([3]; stored at 50° C., 4 weeks): 2.9 % area; Assay ([3]; stored at 50° C., 4 weeks): 92.7 w/w; Total Impurities ([3]; stored at 50° C., 4 weeks): 4.5 % area; % Moisture ([3]; stored at 50° C., 3 days): 0.4%; Amine ([3]; stored at 50° C., 3 days): 0.4 % area; Assay ([3]; stored at 50° C., 3 days): 99.5 w/w; Total Impurities ([3]; stored at 50° C., 3 days): 0.7 % area; therapeutic utility in vivo [4]: therapeutic utility; antitumor activity in vitro [5]: antitumor activity; antitumor activity in vitro [6]: antitumor activity; water solubility [2]: < 0.1 mg/mL

With `COc1cc(NCc2ccc3nc(N)nc(N)c3c2C)cc(OC)c1OC` [Monohydrate, trimetrexate monohydrate] as the compound, how does the Assay ([3]; Initial, before storage, HPLC purity, monohydrate) read?
Its Assay is 99.6 w/w.

And the “Total Impurities” value ([3]; Initial, HPLC, monohydrate)?
Its value is 0.2 % area.

And the Amine ([3]; Initial, degradation product 6-aminomethyl-5-methyl-2,4-quinazolinediamine, HPLC, monohydrate)?
The Amine was 0.1 % area.

And the “% Moisture” value ([3]; Initial, monohydrate)?
Its value is 4.9%.

What about the “degradation products in HPLC chromatogram” value ([3]; after 4 weeks at 50° C., FIG. 7) of the same compound?
Its value is “no significant degradation products”.

And the “% Moisture” value [3, 8]?
Its value is 4.5%.

What about the Amine [3, 8] of the same compound?
Its Amine is 0.1 % area.

What about the Assay [3, 8] of the same compound?
Its Assay is 96.3 w/w.

And the “Total Impurities” value [3, 8]?
The value was 0.1 % area.

And the “% Moisture” value [3, 9]?
The value was 4.9%.

What about the Amine [3, 9] of the same compound?
The Amine was 0.1 % area.

And the Assay [3, 9]?
The Assay was 99.4 w/w.

What about the “Total Impurities” value [3, 9] of the same compound?
The value was 0.1 % area.

And the “% Moisture” value [3, 10]?
Its value is 4.3%.

What about the Amine [3, 10] of the same compound?
The Amine was 0.1 % area.

And the Assay [3, 10]?
The Assay was 99.6 w/w.

What about the “Total Impurities” value [3, 10] of the same compound?
The value was 0.3 % area.

What about the “% Moisture” value [3, 11] of the same compound?
The value was 4.7%.

And the Amine [3, 11]?
The Amine was 0.1 % area.

And the Assay [3, 11]?
The Assay was 101.4 w/w.

What about the “Total Impurities” value [3, 11] of the same compound?
The value was 0.2 % area.

And the “% Moisture” value [3, 12]?
The value was 4.6%.

What about the Amine [3, 12] of the same compound?
The Amine was 0.1 % area.

What about the Assay [3, 12] of the same compound?
Its Assay is 98.6 w/w.

And the “Total Impurities” value [3, 12]?
Its value is 0.2 % area.

And the “% Moisture” value [3, 13]?
The value was 4.8%.

What about the Amine [3, 13] of the same compound?
The Amine was 0.1 % area.

And the Assay [3, 13]?
The Assay was 98.7 w/w.

And the “Total Impurities” value [3, 13]?
The value was 0.1 % area.

What about the “% Moisture” value [3, 14] of the same compound?
Its value is 4.4%.

What about the Amine [3, 14] of the same compound?
The Amine was 0.2 % area.

And the Assay [3, 14]?
Its Assay is 99.6 w/w.

What about the “Total Impurities” value [3, 14] of the same compound?
The value was 0.3 % area.

And the “% Moisture” value [3, 15]?
The value was 4.7%.

What about the Amine [3, 15] of the same compound?
The Amine was 0.1 % area.

What about the Assay [3, 15] of the same compound?
The Assay was 99.4 w/w.

What about the “Total Impurities” value [3, 15] of the same compound?
Its value is 0.3 % area.

What about the hygroscopicity [7] of the same compound?
Its hygroscopicity is “non-hygroscopic”.
